Data published in PubChem BioAssay AID2060912 (Molecular Pharmacology Branch, DTP, NCI, 2025).

System: HUVEC/MSC spheroids viability
Experiment: Human HUVEC/MSC cell line growth inhibition [KRAS2];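 as to viability, T/C: percent of DMSO vehicle control luminescence so 100% = untreated viability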
Details: for IC50: curve of first compound; for viability, T/C: stronger effect = lower value; active = viability on the fitted dose curve at most 10% of control; inactive = the rest
In short: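 HUVEC + hMSC stromal spheroids only, no malignant cells; 37 °C, 5% CO2. Drugs singly and in pairs, half-log series down from clinical Cmax (max 10 microM if Cmax undetermined).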

[1] = second compound 0.0316 µM, first compound 0.0316 µM
[2] = second compound 0.0316 µM, first compound 0.1 µM
[3] = second compound 0.0316 µM, first compound 0.316 µM
[4] = second compound 0.0316 µM, first compound 1 µM
[5] = second compound 0.0316 µM, first compound 3.16 µM
[6] = second compound 0.0316 µM, first compound 10 µM
[7] = second compound 0.1 µM, first compound 0.0316 µM
[8] = second compound 0.1 µM, first compound 0.1 µM
[9] = second compound 0.1 µM, first compound 0.316 µM
[10] = second compound 0.1 µM, first compound 1 µM
[11] = second compound 0.1 µM, first compound 3.16 µM
[12] = second compound 0.1 µM, first compound 10 µM
[13] = second compound 0.316 µM, first compound 0.0316 µM
[14] = second compound 0.316 µM, first compound 0.1 µM
[15] = second compound 0.316 µM, first compound 0.316 µM
[16] = second compound 0.316 µM, first compound 1 µM
[17] = second compound 0.316 µM, first compound 3.16 µM
[18] = second compound 0.316 µM, first compound 10 µM
[19] = second compound 1 µM, first compound 0.0316 µM
[20] = second compound 1 µM, first compound 0.1 µM
[21] = second compound 1 µM, first compound 0.316 µM
[22] = second compound 1 µM, first compound 1 µM
[23] = second compound 1 µM, first compound 3.16 µM
[24] = second compound 1 µM, first compound 10 µM
[25] = second compound 3.16 µM, first compound 0.0316 µM
[26] = second compound 3.16 µM, first compound 0.1 µM
[27] = second compound 3.16 µM, first compound 0.316 µM
[28] = second compound 3.16 µM, first compound 1 µM
[29] = second compound 3.16 µM, first compound 3.16 µM
[30] = second compound 3.16 µM, first compound 10 µM
[31] = second compound 10 µM, first compound 0.0316 µM
[32] = second compound 10 µM, first compound 0.1 µM
[33] = second compound 10 µM, first compound 0.316 µM
[34] = second compound 10 µM, first compound 1 µM
[35] = second compound 10 µM, first compound 3.16 µM
[36] = second compound 10 µM, first compound 10 µM

CC(=O)Nc1cccc(-n2c(=O)n(C3CC3)c(=O)c3c(Nc4ccc(I)cc4F)n(C)c(=O)c(C)c32)c1 + COc1cc2nc(C)nc(NC(C)c3cc(N)cc(C(F)(F)F)c3)c2cc1OC1CCOC1
active: viability, T/C (second compound 10 µM, first compound 0.03 µM) 5.88%
15.3 nM: IC50 (second compound 0.0316 µM)
13.1 nM: IC50 (second compound 0.316 µM)
inactive: viability, T/C (second compound 0.0316 µM, first compound 94.9 pM) 126% | viability, T/C (second compound 0.0316 µM, first compound 0.0003 µM) 124% | viability, T/C (second compound 0.0316 µM, first compound 0.000949 µM) 105% | viability, T/C (second compound 0.0316 µM, first compound 0.003 µM) 92.6% | viability, T/C (second compound 0.0316 µM, first compound 0.00949 µM) 78.8% | viability, T/C (second compound 0.0316 µM, first compound 0.03 µM) 18.3% | viability, T/C (second compound 0.1 µM, first compound 94.9 pM) 105% | viability, T/C (second compound 0.1 µM, first compound 0.0003 µM) 129% | viability, T/C (second compound 0.1 µM, first compound 0.000949 µM) 129% | viability, T/C (second compound 0.1 µM, first compound 0.003 µM) 74.2% | viability, T/C (second compound 0.1 µM, first compound 0.00949 µM) 80.2% | viability, T/C (second compound 0.1 µM, first compound 0.03 µM) 18.6% | viability, T/C (second compound 0.316 µM, first compound 94.9 pM) 103% | viability, T/C (second compound 0.316 µM, first compound 0.0003 µM) 134% | viability, T/C (second compound 0.316 µM, first compound 0.000949 µM) 115% | viability, T/C (second compound 0.316 µM, first compound 0.003 µM) 82.6% | viability, T/C (second compound 0.316 µM, first compound 0.00949 µM) 68.8% | viability, T/C (second compound 0.316 µM, first compound 0.03 µM) 14.6% | viability, T/C (second compound 1 µM, first compound 94.9 pM) 108% | viability, T/C (second compound 1 µM, first compound 0.0003 µM) 125% | viability, T/C (second compound 1 µM, first compound 0.000949 µM) 91.4% | viability, T/C (second compound 1 µM, first compound 0.003 µM) 76.7% | viability, T/C (second compound 1 µM, first compound 0.00949 µM) 73.2% | viability, T/C (second compound 1 µM, first compound 0.03 µM) 15.2% | viability, T/C (second compound 3.16 µM, first compound 94.9 pM) 91% | viability, T/C (second compound 3.16 µM, first compound 0.0003 µM) 104% | viability, T/C (second compound 3.16 µM, first compound 0.000949 µM) 113% | viability, T/C (second compound 3.16 µM, first compound 0.003 µM) 68.8% | viability, T/C (second compound 3.16 µM, first compound 0.00949 µM) 76.4% | viability, T/C (second compound 3.16 µM, first compound 0.03 µM) 15.9% | viability, T/C (second compound 10 µM, first compound 94.9 pM) 83% | viability, T/C (second compound 10 µM, first compound 0.0003 µM) 99% | viability, T/C (second compound 10 µM, first compound 0.000949 µM) 97% | viability, T/C (second compound 10 µM, first compound 0.003 µM) 59.6% | viability, T/C (second compound 10 µM, first compound 0.00949 µM) 60.4%
10.4 nM: IC50 (second compound 10 µM)
14.4 nM: IC50 (second compound 3.16 µM)
13 nM: IC50 (second compound 1 µM)
15.2 nM: IC50 (second compound 0.1 µM)

COC(=O)c1ccc2c(C(=Nc3ccc(N(C)C(=O)CN4CCN(C)CC4)cc3)c3ccccc3)c(O)[nH]c2c1 + COc1cc2nc(C)nc(NC(C)c3cc(N)cc(C(F)(F)F)c3)c2cc1OC1CCOC1
949 nM: IC50 (second compound 0.0316 µM)
619 nM: IC50 (second compound 3.16 µM)
783 nM: IC50 (second compound 0.1 µM)
inactive: viability, T/C [1] 77.5% | viability, T/C [2] 78.8% | viability, T/C [3] 72.5% | viability, T/C [4] 41% | viability, T/C [5] 29.7% | viability, T/C [7] 78.7% | viability, T/C [8] 89.2% | viability, T/C [9] 67.3% | viability, T/C [10] 40.2% | viability, T/C [11] 24.7% | viability, T/C [13] 72.2% | viability, T/C [14] 83.1% | viability, T/C [15] 52.7% | viability, T/C [16] 39.1% | viability, T/C [17] 22% | viability, T/C [19] 80.1% | viability, T/C [20] 83.4% | viability, T/C [21] 73% | viability, T/C [22] 38.6% | viability, T/C [23] 19.2% | viability, T/C [25] 59.8% | viability, T/C [26] 68.5% | viability, T/C [27] 62.5% | viability, T/C [28] 40.4% | viability, T/C [29] 17.2% | viability, T/C [31] 63.2% | viability, T/C [32] 68% | viability, T/C [33] 62.7% | viability, T/C [34] 39.1%
551 nM: IC50 (second compound 0.316 µM)
739 nM: IC50 (second compound 1 µM)
604 nM: IC50 (second compound 10 µM)
active: viability, T/C [6] 0.31% | viability, T/C [12] 0.32% | viability, T/C [18] 0.35% | viability, T/C [24] 0.36% | viability, T/C [30] 0.29% | viability, T/C [35] 0.52% | viability, T/C [36] 0.28%

COc1cc(Nc2ncc3c(n2)-c2ccc(Cl)cc2C(c2c(F)cccc2OC)=NC3)ccc1C(=O)O + COc1cc2nc(C)nc(NC(C)c3cc(N)cc(C(F)(F)F)c3)c2cc1OC1CCOC1
inactive: viability, T/C [1] 79.5% | viability, T/C [2] 94.3% | viability, T/C [3] 109% | viability, T/C [4] 82.5% | viability, T/C [5] 111% | viability, T/C [6] 61.6% | viability, T/C [7] 95.5% | viability, T/C [8] 89.7% | viability, T/C [9] 105% | viability, T/C [10] 85.8% | viability, T/C [11] 97% | viability, T/C [12] 58.8% | viability, T/C [13] 87.8% | viability, T/C [14] 97.1% | viability, T/C [15] 92.5% | viability, T/C [16] 105% | viability, T/C [17] 104% | viability, T/C [18] 46.5% | viability, T/C [19] 86.9% | viability, T/C [20] 89.5% | viability, T/C [21] 96.8% | viability, T/C [22] 106% | viability, T/C [23] 107% | viability, T/C [24] 52.7% | viability, T/C [25] 77.4% | viability, T/C [26] 94.8% | viability, T/C [27] 102% | viability, T/C [28] 77% | viability, T/C [29] 102% | viability, T/C [30] 48.7% | viability, T/C [31] 62.5% | viability, T/C [32] 85.8% | viability, T/C [33] 72.5% | viability, T/C [34] 84.9% | viability, T/C [35] 74.9% | viability, T/C [36] 46.1%
8570 nM: IC50 (second compound 10 µM)
9250 nM: IC50 (second compound 0.316 µM)
9650 nM: IC50 (second compound 3.16 µM)
> 10000 nM: IC50 (second compound 0.0316 µM) | IC50 (second compound 0.1 µM) | IC50 (second compound 1 µM)

COc1cc2nccc(Oc3ccc(NC(=O)C4(C(=O)Nc5ccc(F)cc5)CC4)cc3)c2cc1OC + COc1cc2nc(C)nc(NC(C)c3cc(N)cc(C(F)(F)F)c3)c2cc1OC1CCOC1
6120 nM: IC50 (second compound 0.0316 µM)
5330 nM: IC50 (second compound 0.316 µM)
1870 nM: IC50 (second compound 10 µM)
inactive: viability, T/C [1] 73.8% | viability, T/C [2] 75.2% | viability, T/C [3] 66.8% | viability, T/C [4] 80.3% | viability, T/C [5] 73.5% | viability, T/C [6] 32.5% | viability, T/C [7] 74.7% | viability, T/C [8] 77% | viability, T/C [9] 68% | viability, T/C [10] 64.8% | viability, T/C [11] 63.4% | viability, T/C [12] 15.9% | viability, T/C [13] 66.1% | viability, T/C [14] 68.5% | viability, T/C [15] 60.8% | viability, T/C [16] 78.2% | viability, T/C [17] 87.7% | viability, T/C [18] 23.3% | viability, T/C [19] 61.6% | viability, T/C [20] 69% | viability, T/C [21] 58.1% | viability, T/C [22] 85.2% | viability, T/C [23] 79.4% | viability, T/C [24] 21.1% | viability, T/C [25] 60.6% | viability, T/C [26] 67.2% | viability, T/C [27] 60.9% | viability, T/C [28] 76.5% | viability, T/C [29] 66.9% | viability, T/C [31] 56.9% | viability, T/C [32] 57.8% | viability, T/C [33] 73.3% | viability, T/C [34] 82.5% | viability, T/C [35] 35.1%
5100 nM: IC50 (second compound 1 µM)
active: viability, T/C [30] 3.26% | viability, T/C [36] 0.26%
4260 nM: IC50 (second compound 3.16 µM)
4190 nM: IC50 (second compound 0.1 µM)
